Measured values taken from patent publication US12077483B2, “Modified amine lipids” (Intellia Therapeutics, Inc., priority 2018, dated 2024).

Assays:
[1] = RNA encapsulation efficiency of LNP (Ribogreen fluorescence assay); assay type: physicochemical; conditions: LNP with the compound as amine lipid
In short: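 LNP samples diluted in 1× TE with or without 0.2% Triton-X 100 for total or free RNA, stained ~10 min at room temperature in the dark with RiboGreen; fluorescence ex 488/em 525 nm against RNA standard curves. Encapsulation efficiency = (Total RNA−Free RNA)/Total RNA.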

[2] = LNP average particle size and polydispersity by dynamic light scattering; assay type: physicochemical; conditions: LNP with the compound as amine lipid
In short: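 LNPs were diluted in PBS to a count rate of about 200-400 kcps and measured by DLS on a Zetasizer. Size is the intensity-weighted Z-average diameter, reported with number-average diameter, and the polydispersity index describes the spread of sizes around the mean.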

[3] = system: mouse TTR; assay: Serum TTR ELISA in mice after LNP delivery; assay type: in vivo; conditions: mouse serum, relative to TSS control of same experiment
In short: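 Mouse TTR in serum was quantified by ELISA (samples diluted e.g. 10,000- and/or 2,500-fold) 6–7 days after dosing CD-1 females with LNP, typically 0.1 mpk. Values are reported relative to vehicle-treated controls (%).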

[4] = pKa of amine lipid by TNS fluorescence; assay type: physicochemical; conditions: probe TNS (6-(p-toluidino)-2-naphthalenesulfonic acid sodium salt), unformulated amine lipid in ethanol, sodium phosphate buffers -9.0
In short: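 pKa derived from a sigmoidal fit of normalized TNS fluorescence (321 nm excitation, 448 nm emission) versus pH. Lipid from ethanol stock diluted to about 100 μM final in 0.1 M phosphate buffers, pH 4.5–9.0.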

[5] = Expt. 5, composition ratio (mol %) 50/10/38.5/1.5
[6] = Expt. 6, composition ratio (mol %) 50/9/38/3 for Cmpnd 49, 50/10/38.5/1.5 for the others
[7] = Expt. 9, composition ratio (mol %) 50/9/38/3 for Cmpnd 49, 50/10/38.5/1.5 for the others
[8] = Expt. 10, composition ratio (mol %) 50/9/38/3 for Cmpnd 49, 50/10/38.5/1.5 for the others

SMILES | pKa [4] | Encapsulation (%) [1, 8] [%] | Num Ave Size (nm) [2, 8] [nm] | PDI [2, 8] | Z-Ave Size (nm) [2, 8] [nm] | Serum TTR % TSS ([3]; dose 0.03 mpk) [% TSS] | also measured
CCCCC/C=C\C/C=C\CCCCCCCC(=O)OCC(COC(=O)CCCCCCC/C=C\C/C=C\CCCCC)OC(=O)CCC(CCCCCC)OC(=O)NC1CN(C)C1 (centres unmarked) [Compound 84, 2-((4-(((1-methylazetidin-3-yl)carbamoyl)oxy)decanoyl)oxy)propane-1,3-diyl (9Z,9′Z,12Z,12′Z)-bis(octadeca-9,12-dienoate)] | 7.39 |  |  |  |  | 80.3 | Encapsulation (%) [1, 5]: 99%; Num Ave Size (nm) [2, 5]: 75 nm; PDI [2, 5]: 0.03; Z-Ave Size (nm) [2, 5]: 91.00 nm; Serum TTR % TSS ([3]; dose 0.1 mpk): 73.2 % TSS
CCCCC/C=C\C/C=C\CCCCCCCC(=O)OCC(COC(=O)CCCCCCC/C=C\C/C=C\CCCCC)OC(=O)C1(C(CCCCCCCC)OC(=O)NCCN(C)CC)CC1 (centres unmarked) [Compound 86, 2-((1-(1-(((2-(ethyl(methyl)amino)ethyl)carbamoyl)oxy)nonyl)cyclopropane-1-carbonyl)oxy)propane-1,3-diyl (9Z,9′Z,12Z,12′Z)-bis(octadeca-9,12-dienoate)] | 6.23 |  |  |  |  | 93.10 | Encapsulation (%) [1, 6]: 98%; Num Ave Size (nm) [2, 6]: 68 nm; PDI [2, 6]: 0.04; Z-Ave Size (nm) [2, 6]: 87.00 nm; Serum TTR % TSS ([3]; dose 0.1 mpk): 28.80 % TSS
CCCCC/C=C\C/C=C\CCCCCCCC(=O)OCC(COC(=O)CCCCCCC/C=C\C/C=C\CCCCC)OC(=O)CC[C@H](CCCCCC)OC(=O)NCCN1CCCC1 [Compound 89, 2-(((S)-4-(((2-(pyrrolidin-1-yl)ethyl)carbamoyl)oxy)decanoyl)oxy)propane-1,3-diyl (9Z,9′Z,12Z,12′Z)-bis(octadeca-9,12-dienoate)] | 6.76 |  |  |  |  | 48.65 | Encapsulation (%) [1, 7]: 98%; Num Ave Size (nm) [2, 7]: 73 nm; PDI [2, 7]: 0.01; Z-Ave Size (nm) [2, 7]: 88 nm

Further lines, with some results ahead:

pKa [4] | Encapsulation (%) [1, 8] [%] | Num Ave Size (nm) [2, 8] [nm] | PDI [2, 8] | Z-Ave Size (nm) [2, 8] [nm] | SMILES | Serum TTR % TSS ([3]; dose 0.03 mpk) [% TSS] | also measured
6.8 |  |  |  |  | CCCCC/C=C\C/C=C\CCCCCCCC(=O)OCC(COC(=O)CCCCCCC/C=C\C/C=C\CCCCC)OC(=O)CC[C@@H](CCCCCC)OC(=O)NCCN1CCCC1 [Compound 90, 2-(((R)-4-(((2-(pyrrolidin-1-yl)ethyl)carbamoyl)oxy)decanoyl)oxy)propane-1,3-diyl (9Z,9′Z,12Z,12′Z)-bis(octadeca-9,12-dienoate)] | 59.95 | Encapsulation (%) [1, 7]: 98%; Num Ave Size (nm) [2, 7]: 81 nm; PDI [2, 7]: 0.02; Z-Ave Size (nm) [2, 7]: 99 nm
6.48 | 98 | 82 | 0.01 | 97 | CCCCC/C=C\C/C=C\CCCCCCCC(=O)OCC(COC(=O)CCCCCCC/C=C\C/C=C\CCCCC)OC(=O)CCC(CCCCCCCC)OC(=O)NCCN(C)C (centres unmarked) [Compound 91, 2-((4-(((2-(dimethylamino)ethyl)carbamoyl)oxy)dodecanoyl)oxy)propane-1,3-diyl (9Z,9′Z,12Z,12′Z)-bis(octadeca-9,12-dienoate)] | 89 | 
5.96 | 98 | 51 | 0.06 | 67 | CCCCC/C=C\C/C=C\CCCCCCCC(=O)OCC(COC(=O)CCCCCCC/C=C\C/C=C\CCCCC)OC(=O)CCC(CCCCCCCC)OC(=O)OC1CCN(C)CC1 (centres unmarked) [Compound 92, 2-((4-((((1-methylpiperidin-4-yl)oxy)carbonyl)oxy)dodecanoyl)oxy)propane-1,3-diyl (9Z,9′Z,12Z,12′Z)-bis(octadeca-9,12-dienoate)] | 120 | 
6.96 | 98 | 86 | 0.01 | 103 | CCCCC/C=C\C/C=C\CCCCCCCC(=O)OCC(COC(=O)CCCCCCC/C=C\C/C=C\CCCCC)OC(=O)CCC(CCCCCCCC)OC(=O)NCCN1CCC1 (centres unmarked) [Compound 93, 2-((4-(((2-(azetidin-1-yl)ethyl)carbamoyl)oxy)dodecanoyl)oxy)propane-1,3-diyl (9Z,9′Z,12Z,12′Z)-bis(octadeca-9,12-dienoate)] | 100 | 
